Source: ChEMBL document CHEMBL1157396, “Dihydroagarofuranoid sesquiterpenes, a lignan derivative, a benzenoid, and antitubercular constituents from the stem of Microtropis japonica” (2008)
Values after ≈ are worked out from the molar mass of the structure shown.

These compounds were tested on Mycobacterium tuberculosis (assay: Antitubercular activity against Mycobacterium tuberculosis H37Rv after 2 weeks by agar dilution method). Conditions: 336 h.
Format: functional

Structure (SMILES)	MIC
CC[C@H](CC[C@@H](C)[C@H]1CC[C@H]2[C@@H]3C(=O)C=C4C[C@@H](O)CC[C@]4(C)[C@H]3CC[C@]12C)C(C)C	128 µM (≈ 54.9 µg/mL)
COc1cc(/C=C/C(=O)OC[C@H](Cc2ccc(O)c(OC)c2)[C@H](COC(=O)/C=C/c2ccc(O)c(OC)c2)Cc2ccc(O)c(OC)c2)ccc1O	126 µM (≈ 90.1 µg/mL)
CC(=O)O[C@H]1C[C@@H](COC(=O)c2ccccc2)[C@]23OC(C)(C)[C@H](C[C@H](OC(=O)c4ccccc4)[C@]2(C)[C@H]1OC(C)=O)[C@H]3OC(=O)c1ccccc1	95 µM (≈ 66.4 µg/mL)
CC(=O)OC[C@]12[C@@H](OC(=O)c3ccccc3)C[C@@H]3[C@@H](OC(=O)c4ccccc4)[C@]1(OC3(C)C)[C@H](C)C[C@H](OC(=O)c1ccccc1)[C@@H]2OC(C)=O	39.6 µM (≈ 27.7 µg/mL)
COc1cc(/C=C\C(=O)OC[C@H](Cc2ccc(O)c(OC)c2)[C@H](COC(=O)/C=C\c2ccc(O)c(OC)c2)Cc2ccc(O)c(OC)c2)ccc1O	122 µM (≈ 87.2 µg/mL)
COc1cc(C(=O)CCO)ccc1O	153 µM (≈ 30 µg/mL)
CC(=O)O[C@H]1C[C@@H](C)[C@]23OC(C)(C)[C@H]([C@H](OC(=O)c4ccccc4)[C@H](OC(=O)c4ccccc4)[C@]2(COC(=O)c2ccccc2)[C@H]1OC(C)=O)[C@H]3OC(C)=O	79.3 µM (≈ 60 µg/mL)
COc1cc(C(=O)C(CO)c2cc(OC)c(O)c(OC)c2)ccc1O (stereo not drawn) [5-METHOXYEVOFOLIN B]	215 µM (≈ 74.9 µg/mL)
CC[C@H](CC[C@@H](C)[C@H]1CC[C@H]2[C@@H]3CC=C4C[C@@H](O)CC[C@]4(C)[C@H]3CC[C@]12C)C(C)C [BETA-SITOSTEROL]	> 400 µM
CC(=O)OC[C@]12[C@@H](OC(=O)c3ccccc3)C[C@@H]3[C@@H](OC(C)=O)[C@]1(OC3(C)C)[C@H](C)C[C@H](OC(C)=O)[C@@H]2O [CELAHIN C]	31.3 µM (≈ 16.7 µg/mL)
COc1cc(/C=C/C=O)ccc1O [CONIFERYL ALDEHYDE]	> 400 µM
CC[C@@H](CO)NCCN[C@@H](CC)CO [ETHAMBUTOL]	30.6 µM (≈ 6.25 µg/mL)
CCOc1cc(C=O)ccc1O [ETHYL VANILLIN]	> 400 µM
COc1cc(C(=O)C(CO)c2ccc(O)c(OC)c2)ccc1O (stereo not drawn) [EVOFOLIN B]	235 µM (≈ 74.8 µg/mL)
CC(=O)O[C@@H]1[C@H]2C[C@H](OC(=O)c3ccccc3)[C@]3(COC(=O)c4ccccc4)[C@@H](OC(C)=O)[C@@H](OC(=O)c4ccccc4)C[C@@H](C)[C@@]13OC2(C)C [FOKIENAGAROFURAN A]	85.9 µM (≈ 60 µg/mL)
CC(=O)O[C@H]1[C@@H](OC(=O)c2ccccc2)C[C@@H](C)[C@]23OC(C)(C)[C@H](C[C@H](OC(=O)c4ccccc4)[C@]12COC(=O)c1ccccc1)[C@H]3OC(=O)c1ccccc1 [FOKIENAGAROFURAN D]	105 µM (≈ 79.9 µg/mL)
CN1CCCC1=O [METHYLPYRROLIDONE]	> 400 µM
COc1cc(O)c2c(c1)O[C@H](c1ccc(O)cc1)CC2=O [SAKURANETIN]	209 µM (≈ 59.8 µg/mL)
CC(=O)OC[C@]12[C@@H](OC(=O)c3ccccc3)C[C@@H]3[C@@H](OC(C)=O)[C@]1(OC3(C)C)[C@H](C)C[C@H](O)[C@@H]2OC(C)=O [SALASOL A]	28.2 µM (≈ 15 µg/mL)
COc1cc2ccc(=O)oc2cc1OC [SCOPARONE]	388 µM (≈ 80 µg/mL)
COc1cc(C=O)cc(OC)c1O [SYRINGALDEHYDE]	> 400 µM
COc1cc(C(=O)O)ccc1O [VANILLIC ACID]	238 µM (≈ 40 µg/mL)
COc1cc(C=O)ccc1O [VANILLIN]	> 400 µM
